Measurements: patent publication US20040110928A1, “Peptide conjugates for drug delivery” (priority 2000, published 2004)

Conditions: biotin tag reacted with fluorescently-labelled avidin
Protocol: In a separate experiment, two synthetic peptides were produced, and covalently attached to a biotin molecule. The sequences were:
The synthetic peptides were assessed for translocation by reacting the biotin tag with fluorescently-labelled avidin.

Row | Substance | Translocation
1 | Biotin-spacer-TPKKAKKPAAAAGASSAKSP-amide [SEQ ID NO. 11] | Translocation was observed
2 | Biotin-spacer-TPKKASSPAAAAGAKKAKSP-amide [SEQ ID NO. 10] | no translocation was observed
